Legend:
A704 (Kidney Carcinoma) = assay: Bliss excess, mean over the matrix (fraction); higher = more synergy
Outline: (§1)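 Bliss excess equals the observed combination effect minus the expected value EA + EB − EA·EB, where EA and EB are the effects of each agent alone. Combination Emax is the second-highest inhibition within the matrix. Inhibition was scaled from CellTiter-Glo 2.0 luminescence, with 0 set by vehicle wells and 1 by blank wells, after 72 hours of two-drug dosing of cells plated in 1536-well plates.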

[1] = test system: EMC-BAC-2 (Non-Small Cell Lung Carcinoma); assay: as above
Outline: as §1

GOTO (Neuroblastoma) [2] = assay: as above
Outline: as §1

[3] = test system: KYSE-50 (Esophageal Squamous Cell Carcinoma); assay: as above
Outline: as §1

NB7 (Neuroblastoma) [4] = assay: as above
Outline: as §1

[5] = test system: PFSK-1 (Other Solid Carcinomas); assay: as above
Outline: as §1

[6] = test system: VMRC-LCD (Lung Adenocarcinoma); assay: as above
Outline: as §1

[7] = test system: DG-75 (Burkitt's Lymphoma); assay: combination Emax (second highest fraction inhibited in the dose matrix, 72 h); higher = more inhibition; extreme values may be limits of the assay
Outline: as §1

EW-13 (Ewing's Sarcoma) = assay: as above
Outline: as §1

GOTO (Neuroblastoma) [8] = assay: as above
Outline: as §1

[9] = test system: HuP-T3 (Pancreatic Carcinoma); assay: as above
Outline: as §1

IMR-5 (Neuroblastoma) = assay: as above
Outline: as §1

[10] = test system: KYSE-50 (Esophageal Squamous Cell Carcinoma); assay: as above
Outline: as §1

[11] = test system: MFE-319 (Endometrial Carcinoma); assay: as above
Outline: as §1

NB7 (Neuroblastoma) [12] = assay: as above
Outline: as §1

[13] = test system: NCI-H2405 (Lung Adenocarcinoma); assay: as above
Outline: as §1

[14] = test system: NCI-H513 (Other Solid Carcinomas); assay: as above
Outline: as §1

[15] = test system: OCUM-1 (Gastric Carcinoma); assay: as above
Outline: as §1

[16] = test system: TGBC11TKB (Gastric Carcinoma); assay: as above
Outline: as §1

[17] = test system: VMRC-LCD (Lung Adenocarcinoma); assay: as above
Outline: as §1

Compound | Bliss excess (A704 (Kidney Carcinoma)) | Bliss excess [1] | Bliss excess (GOTO (Neuroblastoma) [2]) | Bliss excess [3] | Bliss excess (NB7 (Neuroblastoma) [4]) | Bliss excess [5] | Bliss excess [6] | combination Emax [7] | combination Emax (EW-13 (Ewing's Sarcoma)) | combination Emax (GOTO (Neuroblastoma) [8]) | combination Emax [9] | combination Emax (IMR-5 (Neuroblastoma)) | combination Emax [10] | combination Emax [11] | combination Emax (NB7 (Neuroblastoma) [12]) | combination Emax [13] | combination Emax [14] | combination Emax [15] | combination Emax [16] | combination Emax [17]
CC1(C)CCC(CN2CCN(c3ccc(C(=O)NS(=O)(=O)c4ccc(NCC5CCOCC5)c([N+](=O)[O-])c4)c(Oc4cnc5[nH]ccc5c4)c3)CC2)=C(c2ccc(Cl)cc2)C1 [Venetoclax] + C[C@@H]1COCCN1C2=NC(=NC(=C2)C3(CC3)[S@](=N)(=O)C)C4=C5C=CNC5=NC=C4 [AZD6738] (first compound max 1 µM, 7x7, partner max 10 µM) | -0.0758 | -0.0196 | -0.039 | -0.0492 | -0.0342 | 0.0119 | -0.0393 | 0.781 | 0.671 | 0.966 | 0.663 | 1 | 0.719 | 0.837 | 0.5 | 0.305 | 0.356 | 0.672 | 0.901 | 0.537
NC1(C(=O)N[C@@H](CCO)c2ccc(Cl)cc2)CCN(c2ncnc3[nH]ccc23)CC1 [Capivasertib] + CCN(CCO)CCCOc1ccc2c(Nc3cc(CC(=O)Nc4cccc(F)c4)[nH]n3)ncnc2c1 [AZD2811] (first compound max 10 µM, 7x7, partner max 1 µM) | -0.0375 | -0.0124 | 0.0047 | 0.0278 | 0.0377 | -0.027 | 0.0111 | 0.606 | 0.388 | 0.793 | 0.249 | 1 | 0.388 | 0.423 | 0.613 | 0.329 | 0.19 | 0.683 | 0.244 | 0.59
Cc1c2c(nn1C)CSCc1cc(n(C)n1)CSc1cc(c3ccccc3c1)OCCCc1c(C(=O)O)n(C)c3c-2c(Cl)ccc13 [AZD5991] + C=CCn1c(=O)c2cnc(Nc3ccc(N4CCN(C)CC4)cc3)nc2n1-c1cccc(C(C)(C)O)n1 [AZD1775] (first compound max 1 µM, partner max 1 µM) | -0.0506 | -0.0121 | -0.0513 | -0.0042 | -0.0084 | -0.0282 | -0.0174 | 0.92 | 0.388 | 0.834 | 0.457 | 1 | 0.618 | 0.913 | 0.869 | 0.262 | 0.532 | 0.38 | 0.922 | 0.506
CN(CCO)CC[C@H](CSc1ccccc1)Nc1ccc(S(=O)(=O)NC(=O)c2ccc(N3CCC([C@@H](O)c4ccccc4-c4ccc(Cl)cc4)CC3)cc2)cc1S(=O)(=O)C(F)(F)F [AZD4320] + Cn1cnc2c(F)c(Nc3ccc(Br)cc3Cl)c(C(=O)NOCCO)cc21 [Selumetinib] (first compound max 1 µM, 7x7, partner max 3 µM) | -0.075 | 0.0022 | 0.13 | 0.0405 | 0.0397 | 0.057 | 0.0277 | 0.206 | 0.933 | 0.85 | 0.471 | 0.994 | 0.239 | 0.522 | 0.507 | 0.572 | 0.398 | 0.996 | 0.469 | 0.226

Source: the supplement of paper PMC11061612
